Measured values from patent US20240384350A1, “METHODS OF TREATING CANCER WITH KINASE INHIBITORS” (BOARD OF REGENTS, THE UNIVERSITY OF TEXAS SYSTEM, priority 2021, published 2024).

How the values were obtained:
Experiment in all cases: Ba/F3 drug screening, Cell Titer Glo, IC50 Mut/WT
Type in all cases: cell-based
EGFR G719A = target: T1, EGFR G719A (Homo sapiens, UniProt P00533, G719A); settings: Ba/F3 cells, EGFR G719A (PACC), Mut/WT
T1 construct: expressed in transfected cells; host or cells: Ba/F3

EGFR E709K = target: T2, EGFR E709K (Homo sapiens, UniProt P00533, E709K); settings: Ba/F3 cells, EGFR E709K (PACC), Mut/WT
T2 construct: expressed in transfected cells; host or cells: Ba/F3
Procedure: (§1) Data represent the ratio of the IC50 value for a given TKI for cells with a PACC EGFR mutation to the IC50 value for cells with wildtype EGFR.
(§2) Ba/F3 cell generation, drug screening, and IC50 approximations. Ba/F3 cells were obtained as a gift from Dr. Gordon Mills (MD Anderson Cancer Center), and maintained in RPMI (Sigma) containing 10% FBS, 1% penicillin/streptomycin, and 10 ng/ml recombinant mIL-3 (R&D Biosystems). To establish stable Ba/F3 cell lines, Ba/F3 cells were transduced with retroviruses containing mutant EGFR plasmids for 12-24 hours.
(§3) After 48-72 hours of transduction, 2 μg/ml puromycin (Invitrogen) was added to Ba/F3 cell lines in complete RPMI. To select for EGFR positive cell lines, cells were stained with PE-EGFR (Biolegend) and sorted by FACS. After sorting, EGFR positive cells were maintained in RPMI containing 10% FBS, 1% penicillin/streptomycin, and 1 ng/ml EGF to support cell viability. Drug screening was performed as previously described^41,42. Shortly, cells were plated in 384-well plates (Greiner Bio-One) at 2000-3000 cells per well in technical triplicate. Seven different concentrations of TKIs or DMSO vehicle were added to reach a final volume of 40 μL per well. After 72 hours, 11 μL of Cell Titer Glo (Promega) was added to each well. Plates were incubated for a minimum of 10 minutes, and bioluminescence was determined using a FLUOstar OPTIMA plate reader (BMG LABTECH). Raw bioluminescence values were normalized to DMSO control treated cells, and values were plotted in GraphPad Prism. […] Drug screens were performed in technical triplicate on each plate and either duplicate or triplicate biological replicates.

EGFR E709_T710del insD = target: T3, EGFR E709_T710del insD (Homo sapiens, UniProt P00533, DEL709-709/T710D); settings: Ba/F3 cells, EGFR E709_T710del insD (PACC), Mut/WT
T3 construct: expressed in transfected cells; host or cells: Ba/F3
Procedure: as §1, §2, §3

EGFR L858R/V834L = target: T4, EGFR L858R/V834L (Homo sapiens, UniProt P00533, L858R/V834L); settings: Classical-Like, 72 hours
T4 construct: expressed in transfected cells; host or cells: Ba/F3 cells, retroviral pBabe-Puro vector
Procedure: (§4) Data represent the ratio of the IC50 value for a given TKI for cells with a classical-like EGFR mutation to the IC50 value for cells with wildtype EGFR.
as §2
(§5) After 48-72 hours of transduction, 2 μg/ml puromycin (Invitrogen) was added to Ba/F3 cell lines in complete RPMI. To select for EGFR positive cell lines, cells were stained with PE-EGFR (Biolegend) and sorted by FACS. After sorting, EGFR positive cells were maintained in RPMI containing 10% FBS, 1% penicillin/streptomycin, and 1 ng/ml EGF to support cell viability. […] Shortly, cells were plated in 384-well plates (Greiner Bio-One) at 2000-3000 cells per well in technical triplicate. Seven different concentrations of TKIs or DMSO vehicle were added to reach a final volume of 40 μL per well. After 72 hours, 11 μL of Cell Titer Glo (Promega) was added to each well. Plates were incubated for a minimum of 10 minutes, and bioluminescence was determined using a FLUOstar OPTIMA plate reader (BMG LABTECH). Raw bioluminescence values were normalized to DMSO control treated cells, and values were plotted in GraphPad Prism. […] Drug screens were performed in technical triplicate on each plate and either duplicate or triplicate biological replicates.

EGFR G719A L861Q = target: T5, EGFR G719A L861Q (Homo sapiens, UniProt P00533, G719A/L861Q); settings: Ba/F3 cells, EGFR G719A L861Q (PACC), Mut/WT
T5 construct: expressed in transfected cells; host or cells: Ba/F3

EGFR K757R = target: T6, EGFR K757R (Homo sapiens, UniProt P00533, K757R); settings: Ba/F3 cells, EGFR K757R (PACC), Mut/WT
T6 construct: expressed in transfected cells; host or cells: Ba/F3

EGFR S784F = target: T7, EGFR S784F (Homo sapiens, UniProt P00533, S784F); settings: Classical-Like, 72 hours
T7 construct: expressed in transfected cells; host or cells: Ba/F3 cells, retroviral pBabe-Puro vector (vector made by GeneScript from EGFR WT)
Procedure: as §4, §2, §5

EGFR Ex19del T854I = target: T8, EGFR Ex19del T854I (Homo sapiens, UniProt P00533, DEL746-750/T854I); settings: Ba/F3 cells, EGFR Ex19del T854I (PACC), Mut/WT
T8 construct: expressed in transfected cells; host or cells: Ba/F3 (retroviral transduction, pBabe-Puro based vectors)

EGFR T725M = target: T9, EGFR T725M (Homo sapiens, UniProt P00533, T725M); settings: Classical-Like, 72 hours
T9 construct: expressed in transfected cells; host or cells: Ba/F3 cells, retroviral pBabe-Puro vector (vector made by GeneScript from EGFR WT)

EGFR L747S = target: T10, EGFR L747S (Homo sapiens, UniProt P00533, L747S); settings: Ba/F3 cells, EGFR L747S (PACC), Mut/WT
T10 construct: expressed in transfected cells; host or cells: Ba/F3

EGFR L858R/C797S = target: T11, EGFR L858R/C797S (Homo sapiens, UniProt P00533, C797S/L858R); settings: Ba/F3 cells, EGFR L858R/C797S (PACC), Mut/WT
T11 construct: expressed in transfected cells; host or cells: Ba/F3
Procedure: as §1, §2, §3

EGFR A763insLQEA = target: T12, EGFR A763insLQEA (Homo sapiens, UniProt P00533, INS763LQEA); settings: Classical-Like, 72 hours
T12 construct: expressed in transfected cells; host or cells: Ba/F3 cells, retroviral pBabe-Puro vector
Procedure: as §4, §2, §5

EGFR A767insASV = target: T13, EGFR A767insASV (Homo sapiens, UniProt P00533, DUP767-769); settings: Ex20, 72 hours
T13 construct: expressed in transfected cells; host or cells: Ba/F3 cells, retroviral pBabe-Puro vector

EGFR S768I V774M = target: T14, EGFR S768I V774M (Homo sapiens, UniProt P00533, S768I/V774M); settings: Ba/F3 cells, EGFR S768I V774M (PACC), Mut/WT
T14 construct: host or cells: Ba/F3
Procedure: as §1, §2, §3

EGFR L858R/L792H = target: T15, EGFR L858R/L792H (Homo sapiens, UniProt P00533, L792H/L858R); settings: Ba/F3 cells, EGFR L858R/L792H (PACC), Mut/WT
T15 construct: expressed in transfected cells; host or cells: Ba/F3
Procedure: as §1, §2, §3

EGFR G719S = target: T16, EGFR G719S (Homo sapiens, UniProt P00533, G719S); settings: Ba/F3 cells, EGFR G719S (PACC), Mut/WT
T16 construct: expressed in transfected cells; host or cells: Ba/F3
Procedure: as §1, §2, §3

EGFR D770insNPG = target: T17, EGFR D770insNPG (Homo sapiens, UniProt P00533, INS770NPG); settings: Ex20, 72 hours
T17 construct: expressed in transfected cells; host or cells: Ba/F3 cells, retroviral pBabe-Puro vector
Procedure: Data represent the ratio of the IC50 value for a given TKI for cells with an ex20ins EGFR mutation to the IC50 value for cells with wildtype EGFR.
as §2
After 48-72 hours of transduction, 2 μg/ml puromycin (Invitrogen) was added to Ba/F3 cell lines in complete RPMI. To select for EGFR positive cell lines, cells were stained with PE-EGFR (Biolegend) and sorted by FACS. After sorting, EGFR positive cells were maintained in RPMI containing 10% FBS, 1% penicillin/streptomycin, and 1 ng/ml EGF to support cell viability. Drug screening was performed as previously described^41,42. Shortly, cells were plated in 384-well plates (Greiner Bio-One) at 2000-3000 cells per well in technical triplicate. Seven different concentrations of TKIs or DMSO vehicle were added to reach a final volume of 40 μL per well. After 72 hours, 11 μL of Cell Titer Glo (Promega) was added to each well. Plates were incubated for a minimum of 10 minutes, and bioluminescence was determined using a FLUOstar OPTIMA plate reader (BMG LABTECH). Raw bioluminescence values were normalized to DMSO control treated cells, and values were plotted in GraphPad Prism. […] Drug screens were performed in technical triplicate on each plate and either duplicate or triplicate biological replicates. […] Statistical differences between groups were determined by ANOVA as described in the figure legends.

EGFR L718V = target: T18, EGFR L718V (Homo sapiens, UniProt P00533, L718V); settings: Ba/F3 cells, EGFR L718V (PACC), Mut/WT
T18 construct: expressed in transfected cells; host or cells: Ba/F3

EGFR Ex19del = target: T19, EGFR Ex19del (Homo sapiens, UniProt P00533, DEL746-750); settings: Classical-Like, 72 hours
T19 construct: expressed in transfected cells; host or cells: Ba/F3 cells, retroviral pBabe-Puro vector

EGFR L858R = target: T20, EGFR L858R (Homo sapiens, UniProt P00533, L858R); settings: Classical-Like, 72 hours
T20 construct: expressed in transfected cells; host or cells: Ba/F3 cells, retroviral pBabe-Puro vector
Procedure: as §4, §2, §5

EGFR L858R/L718V = target: T21, EGFR L858R/L718V (Homo sapiens, UniProt P00533, L718V/L858R); settings: Ba/F3 cells, EGFR L858R/L718V (PACC), Mut/WT
T21 construct: host or cells: Ba/F3
Procedure: as §1, §2, §3

EGFR S811F = target: T22, EGFR S811F (Homo sapiens, UniProt P00533, S811F); settings: Classical-Like, 72 hours
T22 construct: expressed in transfected cells; host or cells: Ba/F3 cells, retroviral pBabe-Puro vector (vector made by GeneScript from EGFR WT)
Procedure: as §4, §2, §5

EGFR Ex19del G724S = target: T23, EGFR Ex19del G724S (Homo sapiens, UniProt P00533, DEL746-750/G724S); settings: Ba/F3 cells, EGFR Ex19del G724S (PACC), Mut/WT
T23 construct: expressed in transfected cells; host or cells: Ba/F3
Procedure: as §1, §2, §3

EGFR L858R/T790M = target: T24, EGFR L858R/T790M (Homo sapiens, UniProt P00533, L858R/T790M); settings: T790M-like-3S, 72 hours
T24 construct: expressed in transfected cells; host or cells: Ba/F3

Row | SMILES | ratio of the IC50 value for cells with a PACC EGFR mutation to the IC50 value for cells with wildtype EGFR (EGFR G719A) | ratio of the IC50 value for cells with a PACC EGFR mutation to the IC50 value for cells with wildtype EGFR (EGFR E709K) | ratio of the IC50 value for cells with a PACC EGFR mutation to the IC50 value for cells with wildtype EGFR (EGFR E709_T710del insD) | ratio of IC50 for cells with mutant EGFR to IC50 for cells with wildtype EGFR (Mut/WT) (EGFR L858R/V834L) | ratio of the IC50 value for cells with a PACC EGFR mutation to the IC50 value for cells with wildtype EGFR (EGFR G719A L861Q) | ratio of the IC50 value for cells with a PACC EGFR mutation to the IC50 value for cells with wildtype EGFR (EGFR K757R) | ratio of IC50 for cells with mutant EGFR to IC50 for cells with wildtype EGFR (Mut/WT) (EGFR S784F) | ratio of the IC50 value for cells with a PACC EGFR mutation to the IC50 value for cells with wildtype EGFR (EGFR Ex19del T854I) | ratio of IC50 for cells with mutant EGFR to IC50 for cells with wildtype EGFR (Mut/WT) (EGFR T725M) | ratio of the IC50 value for cells with a PACC EGFR mutation to the IC50 value for cells with wildtype EGFR (EGFR L747S) | ratio of the IC50 value for cells with a PACC EGFR mutation to the IC50 value for cells with wildtype EGFR (EGFR L858R/C797S) | ratio of IC50 for cells with mutant EGFR to IC50 for cells with wildtype EGFR (Mut/WT) (EGFR A763insLQEA) | ratio of IC50 for cells with mutant EGFR to IC50 for cells with wildtype EGFR (Mut/WT) (EGFR A767insASV) | ratio of the IC50 value for cells with a PACC EGFR mutation to the IC50 value for cells with wildtype EGFR (EGFR S768I V774M) | ratio of the IC50 value for cells with a PACC EGFR mutation to the IC50 value for cells with wildtype EGFR (EGFR L858R/L792H) | ratio of the IC50 value for cells with a PACC EGFR mutation to the IC50 value for cells with wildtype EGFR (EGFR G719S) | ratio of IC50 for cells with mutant EGFR to IC50 for cells with wildtype EGFR (Mut/WT) (EGFR D770insNPG) | ratio of the IC50 value for cells with a PACC EGFR mutation to the IC50 value for cells with wildtype EGFR (EGFR L718V) | ratio of IC50 for cells with mutant EGFR to IC50 for cells with wildtype EGFR (Mut/WT) (EGFR Ex19del) | ratio of IC50 for cells with mutant EGFR to IC50 for cells with wildtype EGFR (Mut/WT) (EGFR L858R) | further results
1 | C=CC(=O)Nc1cc(Nc2ncc(C(=O)OC(C)C)c(-c3cn(C)c4ccccc34)n2)c(OC)cc1N(C)CCN(C)C [TAK-788 (mobocertinib), mobocertinib] | 1.676 | 10.68 | 0.0198 | 0.006056 | 1.066 | 1.563 | 0.01487 | 4.794 | 1.082 | 2.299 | 57.42 | 0.03374 | 1.553 | 1.227 | 0.0457 | 2.056 | 1.211 | 39.29 | 0.02859 | 0.0472 | ratio of the IC50 value for cells with a PACC EGFR mutation to the IC50 value for cells with wildtype EGFR (EGFR L858R/L718V): 3.491; ratio of IC50 for cells with mutant EGFR to IC50 for cells with wildtype EGFR (Mut/WT) (EGFR S811F): 0.003195; ratio of the IC50 value for cells with a PACC EGFR mutation to the IC50 value for cells with wildtype EGFR (EGFR Ex19del G724S): 3.682; ratio of IC50 for cells with mutant EGFR to IC50 for cells with wildtype EGFR (Mut/WT) (EGFR L858R/T790M): 0.7565
2 | C=CC(=O)N[C@H]1C=C(C)c2c(-c3cnc4ccccc4c3)c3c(N)ncnc3n2C1 [TAS 6417] | 0.01801 | 0.2516 | 0.3335 | 0.0005227 | 0.02387 | 0.4608 | 0.01015 | 0.0152 | 0.02572 | 0.06482 | 3.055 | 0.005254 | 0.1359 | 0.3996 | 0.004611 | 0.01675 | 0.0168 | 0.02378 | 0.00149 | 0.003918 | ratio of the IC50 value for cells with a PACC EGFR mutation to the IC50 value for cells with wildtype EGFR (EGFR L858R/L718V): 0.01509; ratio of IC50 for cells with mutant EGFR to IC50 for cells with wildtype EGFR (Mut/WT) (EGFR S811F): 0.009026; ratio of the IC50 value for cells with a PACC EGFR mutation to the IC50 value for cells with wildtype EGFR (EGFR Ex19del G724S): 0.2809; ratio of IC50 for cells with mutant EGFR to IC50 for cells with wildtype EGFR (Mut/WT) (EGFR L858R/T790M): 0.01963
